{"source": "patent US20150125550A1", "about": "“APPLICATION OF 2,9-DI-SEC-BUTYL-1,10-PHENANTHROLINE AS A GLIOBLASTOMA TUMOR CHEMOTHERAPY” (priority 2013, published 2015)", "key": {"[1]": {"test": "Peripheral pathology and liver toxicity in non-tumor bearing mice", "assay_type": "in vivo, C57BL/6 mice", "description": "Histology: For brain tumor histology, mice were perfused intracardially with 4% formaldehyde in Na+/K+ balanced PBS and brains were extracted, incubated in 4% formaldehyde overnight followed by 30% sucrose in Na+/K+ balanced PBS. Brains were flash frozen in isopentane, embedded in optimal cutting temperature compound (OCT), cryosectioned in coronal sections (12 μm) and stained with hematoxylin and eosin. Another cohort of equivalently drug-treated mice was used for liver, lung and gut histology. The mice were then sacrificed on day 19, and the liver, lung and gut tissues were collected and placed in 4% formaldehyde in Na+/K+ balanced PBS overnight. The organs were then placed for 48 hrs in 70% EtOH before paraffin embedding and sectioning at 6 μm. Sections were then stained with hematoxylin and eosin and pathology was assessed blindly and independently by a trained pathologist. A TUNEL staining kit was obtained from TREVIGEN (NeuroTACS II In Situ Apoptosis Detection Kit, Cat#4823-30-K) and used for both ex-vivo slices and in-vitro staining according to manufacturers instructions.\nIntra-cardial blood was collected from the non-tumor bearing mice and subjected to centrifugation for 10 minutes to collect the serum. Aspartate transaminase and Alanine transaminase levels were measured in the serum using Bio Scientific (3913 Todd Lane Suite 312 Austin, Tex.) colorimetric kits (Cat#5605-01 and 3460-08 respectively).\nTo test if the low level of growth inhibition noted in HFF cells translated into lower systemic toxicity in-vivo, non-tumor bearing control and treatment groups of mice were treated with saline and SBP (10 mg/kg), respectively, on days one, seven, and 13. On day 19 following the first SPB or saline injection, the liver, lungs and proximal small intestine were collected for histopathological analysis."}, "GL-26 glioma cells": {"test_system": "GL-26 glioma cells", "test": "SRB recovery assay (48 hr drug, then 48 hr fresh media)", "assay_type": "cell-based, murine (C57BL/6)", "conditions": "48 hr drug + 48 hr recovery", "description": "The sulforhodamine B (SRB) cytotoxicity assays were adapted from Skehan et al. (22). Briefly, either HFF, primary astrocytes or GL-26 cells were plated in 96-well plates at a density of 4,000 cells/well in a volume of 100 µL overnight at 37° C. and 5% CO2. DMSO stock solutions of SBP, MSBP or TMZ were used at a concentration range of 0.1-25 μM for 48 hr before the supernatant was discarded and the cells were fixed for 1 hr with 10% cold trichloroacetic acid (100 μL, per well). Cells used in recovery assay received fresh media for 48 hrs following the 48 hr drug incubation. The plate was then washed 5 times with de-ionized water, air dried, and stained with 0.4% SRB for 10 min (50 μL, per well). After washing 5 times in 1% acetic acid and air-drying, bound SRB was dissolved in 10 mM unbuffered Tris base (pH 10.5; 100 μL, per well). Bound SRB was then read by absorbance at 492 nm on a SpectraMax plate reader (Molecular Devices). The percent survival was then calculated based upon the absorbance values relative to control wells (0 μM SBP in 0.1% DMSO).\nTo test if constant SBP administration is necessary to maintain growth inhibition, an SRB recovery assay was performed where GL-26 cells were plated and treated as above, but SBP was removed after a 48-hour incubation and replaced by fresh media. […]"}, "[2]": {"conditions": "10 mg/kg days 1, 7, 13, day 19, non-tumor bearing mice"}}, "data": [{"smiles": "CCC(C)c1ccc2ccc3ccc(C(C)CC)nc3c2n1", "note": "(centres unmarked) [Compound 1, 2,9-di-sec-butyl-1,10-phenanthroline]", "values": [{"measurement": "histopathology, duodenum", "setting": "[1]; 10 mg/kg days 1, 7, 13, day 19", "result": "no general pathology"}, {"measurement": "histopathology, liver", "setting": "[1]; 10 mg/kg days 1, 7, 13, day 19", "result": "some endothelial damage, but no overt hepatocyte damage"}, {"measurement": "histopathology, lung", "setting": "[1]; 10 mg/kg days 1, 7, 13, day 19", "result": "no overt pathology"}, {"measurement": "serum alanine transaminase (ALT)", "setting": "[1]; [2]", "result": "49.71±14.61", "unit": "U/L"}, {"measurement": "serum aspartate transaminase (AST)", "setting": "[1]; [2]", "result": "212.3±14.62", "unit": "U/L"}, {"measurement": "side effects in healthy mice", "setting": "[1]; mouse, in vivo", "result": "did not appear to experience any significant side effects"}, {"measurement": "GL-26 cell growth inhibition 48 hours after completion of treatment", "setting": "GL-26 glioma cells; 0.8 mM SBP (so in the source)", "result": "31.5±6.6", "unit": "%"}, {"measurement": "GL-26 cell growth inhibition after extra incubation period", "setting": "GL-26 glioma cells; 1.6-25 mM SBP (so in the source)", "result": "up to 85.4±0.2%"}]}]}
